PubChem BioAssay AID610 (The Scripps Research Institute Molecular Screening Center, 2007)
The source made the active and inactive calls. The rule behind the calls is not given here.

target: Nuclear receptor ROR-alpha (Homo sapiens) (UniProt P35398); assay: inhibitors of orphan receptor RORA, dose response, cell-based (AID 610); conditions: cell-based RORA reporter, inhibition
Sequence (P35398 whole entry, looked up): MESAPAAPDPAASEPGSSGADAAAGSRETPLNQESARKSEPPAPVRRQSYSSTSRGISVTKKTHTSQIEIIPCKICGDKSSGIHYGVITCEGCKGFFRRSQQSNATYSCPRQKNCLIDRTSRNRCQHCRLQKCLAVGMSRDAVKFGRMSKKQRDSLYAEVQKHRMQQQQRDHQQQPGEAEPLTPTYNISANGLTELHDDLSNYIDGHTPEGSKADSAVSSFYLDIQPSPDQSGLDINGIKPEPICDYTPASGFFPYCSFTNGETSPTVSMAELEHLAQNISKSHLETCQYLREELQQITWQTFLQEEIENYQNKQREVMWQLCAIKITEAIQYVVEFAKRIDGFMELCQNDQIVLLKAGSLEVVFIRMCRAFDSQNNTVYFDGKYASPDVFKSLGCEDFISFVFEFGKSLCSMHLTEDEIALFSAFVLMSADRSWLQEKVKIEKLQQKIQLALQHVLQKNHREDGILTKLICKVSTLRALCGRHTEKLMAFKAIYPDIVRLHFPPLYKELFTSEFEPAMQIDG

In order of falling IC50:
1. O=C(/C=C\Nc1ccccn1)c1ccc(Cl)cc1  8350 nM
2. COC(=O)C1=C(CN2CCCc3ccccc32)NC(=O)NC1c1ccc(F)cc1 (centres undefined)  6230 nM
3. COc1cccc2sc(Nc3nc(-c4ccccn4)cs3)nc12  4560 nM
4. O=S(=O)(c1ccc2c(c1)C(=NO)c1cc(S(=O)(=O)N3CCCCC3)ccc1-2)N1CCCCC1  2480 nM
5. Cc1ccc(C(=O)/C=C/Nc2ccccn2)cc1  2090 nM
6. O=C(/C=C\Nc1ccc2c(c1)OCO2)c1ccccn1  1520 nM
7. COc1cc(/C=N/O)ccc1OCc1ccc(C(=O)O)cc1  670 nM

In the case of `O=C(O)CCCCCN1C(=O)CSC1=S`, the IC50 is reported as > 99000 nM (inactive).
In the case of `CC(=O)CC1OC(=O)C(Br)=C1NCc1ccccc1` (centres undefined), the IC50 is reported as “inactive”.
